Measured values: ChEMBL document CHEMBL5532646, “Discovery of 4-(N-dithiobenzyl piperazine)-1,8-naphthalimide as a potent multi-target antitumor agent with good efficacy, limited toxicity, and low resistance” (Eur J Med Chem, 2024)
Activity calls are given as the source filed them. The calls are words filed in the database; no cut-off is given here.

Tests used:
HepG2 [1] = test: Antiproliferative activity against human HepG2 cells incubated for 48 hrs by MTT assay; type: functional, cell-based; details: HepG2, 48 h
SK-OV-3 = test: Antiproliferative activity against human SK-OV-3 cells incubated for 48 hrs by MTT assay; type: functional, cell-based; details: SK-OV-3, 48 h
T-24 [2] = test: Antiproliferative activity against human T24 cells incubated for 48 hrs by MTT assay; type: functional, cell-based; details: T-24, 48 h
HK-2 = test: Antiproliferative activity against human HK-2 cells incubated for 48 hrs by MTT assay; type: functional, cell-based; details: HK-2, 48 h
A549 = test: Antiproliferative activity against human A549 cells incubated for 48 hrs by MTT assay; type: functional, cell-based
A549/CDDP = test: Antiproliferative activity against human A549/DDP cells incubated for 48 hrs by MTT assay; type: functional, cell-based
T-24 [3] = test: Antiproliferative activity against human T24 cells xenografted in nude mouse model assessed as tumor inhibition rate at 15 mg/kg, ip administered once every two days for 21 days relative to control; type: functional; details: T-24, 504 h, time 21 day
[4] = Toxicity in nude mouse model xenografted with human T24 cells assessed as pathological change in lung at 15 mg/kg, ip administered once every two days for 21 days; type: organism-based, T-24; details: in vivo, 504 h, time 21 day
HepG2 [5] = test: Antiproliferative activity against human HepG2 cells xenografted in nude mouse model assessed as tumor inhibition rate at 15 mg/kg, ip administered once every two days for 21 days relative to control; type: functional; details: HepG2, 504 h, time 21 day
[6] = Toxicity in nude mouse model xenografted with human HepG2 cells assessed as pathological change in heart at 15 mg/kg, ip administered once every two days for 21 days; type: organism-based; details: in vivo, 504 h, time 21 day
[7] = Toxicity in nude mouse model xenografted with human HepG2 cells assessed as pathological change in liver at 15 mg/kg, ip administered once every two days for 21 days; type: organism-based; details: in vivo, 504 h, time 21 day
T-24 [8] = test: Antitumor activity against human T24 cells assessed as effect on PI3K-AKT signaling pathway at 5 uM incubated for 24 hrs by TMT/iTRAQ analysis; type: functional, cell-based
T-24 [9] = test: Upregulation of fatty acid metabolism in human T24 cells at 5 uM incubated for 24 hrs by KEGG analysis; type: functional, cell-based
T-24 [10] = test: Induction of ferroptosis in human T24 cells at 5 uM incubated for 24 hrs by KEGG analysis; type: functional, cell-based
T-24 [11] = test: Induction of autophagy in human T24 cells at 5 uM incubated for 24 hrs by KEGG analysis; type: functional, cell-based
T-24 [12] = test: Induction of apoptosis in human T24 cells at 5 uM incubated for 24 hrs by KEGG analysis; type: functional, cell-based
T-24 [13] = test: Induction of ferroptosis in human T24 cells assessed as decrease in GPX4 level at 5 uM incubated for 24 hrs by Western blot analysis; type: functional, cell-based
T-24 [14] = test: Induction of ferroptosis in human T24 cells assessed as increase in lipid peroxide level at 5 uM incubated for 24 hrs by fluorescence based analysis; type: functional, cell-based
T-24 [15] = test: Induction of ferroptosis in human T24 cells assessed as increase in iron level at 5 uM incubated for 24 hrs by FerrOrange probe based confocal microscopy; type: functional, cell-based
T-24 [16] = test: Induction of ferroptosis in human T24 cells assessed as increase in iron level at 5 uM incubated for 24 hrs in presence of DFO by FerrOrange probe based confocal microscopy; type: functional, cell-based
T-24 [17] = test: Induction of ferroptosis in human T24 cells assessed as increase in superoxide anion level at 5 uM incubated for 24 hrs by DHE probe based analysis; type: functional, cell-based
T-24 [18] = test: Induction of ferroptosis in human T24 cells assessed as increase in ROS level at 5 uM incubated for 24 hrs by DCFH-DA probe based analysis; type: functional, cell-based
T-24 [19] = test: Induction of ferroptosis in human T24 cells assessed as ruptured mitochondria at 5 uM incubated for 24 hrs by TEM analysis; type: functional, cell-based
T-24 [20] = test: Induction of ferroptosis in human T24 cells assessed as smaller mitochondria at 5 uM incubated for 24 hrs by TEM analysis; type: functional, cell-based
T-24 [21] = test: Induction of ferroptosis in human T24 cells assessed as increase in mitochondrial membrane density at 5 uM incubated for 24 hrs by TEM analysis; type: functional, cell-based
T-24 [22] = test: Induction of autophagy in human T24 cells assessed as appearance of autophagic vesicles at 5 uM incubated for 48 hrs by TEM analysis; type: functional, cell-based
T-24 [23] = test: Induction of autophagy in human T24 cells assessed as increase in LC-3 level at 2 to 8 uM incubated for 24 hrs by Western blot analysis; type: functional, cell-based; details: dose 2-8 µM
T-24 [24] = test: Induction of autophagy in human T24 cells assessed as decrease in P62 level at 2 to 8 uM incubated for 24 hrs by Western blot analysis; type: functional, cell-based; details: dose 2-8 µM
T-24 [25] = test: Anti-migratory activity against human T24 cells at 1 to 10 uM incubated upto 48 hrs by wound healing assay; type: functional, cell-based; details: dose 1-10 µM
T-24 [26] = test: Anti-migratory activity against human T24 cells at 5 uM by wound healing assay; type: functional, cell-based; details: time <= 48.0 hrs, TDE = time-dependent effect
T-24 [27] = test: Anti-migratory activity against human T24 cells at 5 uM incubated upto 48 hrs in presence of FR180204 by wound healing assay; type: functional, cell-based
T-24 [28] = test: Induction of apoptosis in human T24 cells assessed as increase in cleaved caspase-3 level at 2 to 8 uM incubated for 24 hrs by Western blot analysis; type: functional, cell-based; details: dose 2-8 µM
T-24 [29] = test: Induction of apoptosis in human T24 cells assessed as increase in cleaved PARP level at 2 to 8 uM incubated for 24 hrs by Western blot analysis; type: functional, cell-based; details: dose 2-8 µM
T-24 [30] = test: Induction of apoptosis in human T24 cells assessed as increase in Bax level at 2 to 8 uM incubated for 24 hrs by Western blot analysis; type: functional, cell-based; details: dose 2-8 µM
T-24 [31] = test: Induction of apoptosis in human T24 cells assessed as increase in Bak level at 2 to 8 uM incubated for 24 hrs by Western blot analysis; type: functional, cell-based; details: dose 2-8 µM
T-24 [32] = test: Induction of apoptosis in human T24 cells assessed as increase in Bad level at 2 to 8 uM incubated for 24 hrs by Western blot analysis; type: functional, cell-based; details: dose 2-8 µM
T-24 [33] = test: Induction of cell cycle arrest at G2/M phase in human T24 cells at 2 uM incubated for 24 hrs by flow cytometry (reference value: 12.30 %); type: functional
T-24 [34] = test: Induction of cell cycle arrest at G0/G1 phase in human T24 cells at 5 uM incubated for 24 hrs by flow cytometry (reference value: 75.31 %); type: functional
T-24 [35] = test: Induction of cell cycle arrest at G2/M phase in human T24 cells at 5 uM incubated for 24 hrs by flow cytometry (reference value: 12.30 %); type: functional
T-24 [36] = test: Induction of cell cycle arrest at G2/M phase in human T24 cells at 8 uM incubated for 24 hrs by flow cytometry (reference value: 12.30 %); type: functional
T-24 [37] = test: Induction of cell cycle arrest at G1/S phase in human T24 cells incubated for 24 hrs by flow cytometry; type: functional, cell-based; details: dose 2-8 µM
T-24 [38] = test: Induction of cell cycle arrest in human T24 cells assessed as increase in p21 level at 2 to 8 uM by Western blot analysis; type: functional, cell-based; details: dose 2-8 µM
T-24 [39] = test: Induction of cell cycle arrest in human T24 cells assessed as decrease in MCM5 level at 2 to 5 uM by Western blot analysis; type: functional, cell-based; details: dose 2-5 µM

IC50 (HepG2 [1]): 3.6 µM
IC50 (SK-OV-3): 1.43 µM
SMILES: CN(C)CCN1C(=O)c2cccc3c(N4CCN(C(=S)SCc5ccccc5)CC4)ccc(c23)C1=O
IC50 (T-24 [2]): 3.03 µM
IC50 (HK-2): 14.9 µM
Activity (A549): Active
Activity (A549/CDDP): Active
inhibition in vivo at 15 mg/kg (T-24 [3]): 56.3%
Activity [4]: Non-Toxic
inhibition in vivo at 15 mg/kg (HepG2 [5]): 50%
Activity [6]: Non-Toxic
Activity [7]: Non-Toxic
Activity (T-24 [8]): Active
Activity (T-24 [9]): Active
Activity (T-24 [10]): Active
Activity (T-24 [11]): Active
Activity (T-24 [12]): Active
Activity (T-24 [13]): Active
Activity (T-24 [14]): Active
Activity (T-24 [15]): Active
Activity (T-24 [16]): inactive
Activity (T-24 [17]): Active
Activity (T-24 [18]): Active
Activity (T-24 [19]): Active
Activity (T-24 [20]): Active
Activity (T-24 [21]): Active
Activity (T-24 [22]): Active
Activity (T-24 [23]): Active
Activity (T-24 [24]): Active
Activity (T-24 [25]): Active
Activity (T-24 [26]): Tde
Activity (T-24 [27]): inactive
Activity (T-24 [28]): Active
Activity (T-24 [29]): Active
Activity (T-24 [30]): Active
Activity (T-24 [31]): Active
Activity (T-24 [32]): Active
Activity (T-24 [33]): 20.7%
Activity (T-24 [34]): 51.06%
Activity (T-24 [35]): 18.36%
Activity (T-24 [36]): 16.61%
Activity (T-24 [37]): Dose-Dependent Effect
Activity (T-24 [38]): Active
Activity (T-24 [39]): Active
